# Laboratory results as given in US9259411B2, “Neuronal circuit-dependent neuroprotection by interaction between nicotinic receptors” (priority 2006, dated 2016).
# Legend:
# [1] = target: α3β4 nAChRs (Homo sapiens, UniProt P30926+P32297); settings: inhibits the function of α3β4 nAChRs; cited from earlier work
# [2] = target: α4β2 nAChRs (Homo sapiens, UniProt P17787+P43681); settings: inhibits the function of α4β2 nAChRs; cited from earlier work
# [3] = test system: CA1 neurons of hippocampal slices; assay: Neuroprotection against NMDA excitotoxicity: recovery of population spikes in acute hippocampal slices; assay type: cell-based, rat; settings: for effect of nifedipine on the neuroprotection: 10 μM nifedipine; for effect of PD98059 on the neuroprotection: 50 μM PD98059; for Effect on the neuroprotection caused by the substance: 10 μM PD98059: main target ERK-1,2 kinase
# Description: Male Sprague-Dawley rats (120-200 g) were maintained and sacrificed according to standard procedures reviewed and approved by the Institutional Animal Care and Use Committee. […] Briefly, hippocampi were dissected over ice; transversal 400-μm-thick slices were cut with a manual slicer and immediately transferred to the incubation chamber, thus preserving the neurons in their native environment. The chamber consisted of a temperature-controlled bath surrounding an acrylic plate covered with nylon mesh; the plate was divided into three lanes with independent perfusion. […] C. A bipolar electrode placed in the stratum radiatum was used to stimulate the Shaffer collateral incoming fibers with a constant current for 0.2 msec. The resulting population spike (PS) was recorded in stratum pyramidale with a glass electrode filled with 2 M NaCl, having an impedance of 1-5 M.OMEGA.
# About 30 slices from the hippocampi of two rats were distributed equally among three lanes of an incubation chamber. A maximum of seven slices were analyzed per lane for each individual experiment, and on average 21 slices per condition were tested for each experimental condition. […] Because the neurons are maintained in their native environment and in contact with other cells, stimulation with the appropriate stimulus can elicit a PS. One hour after dissection, each slice was stimulated with a stimulus twice the strength required to elicit a threshold PS. This initial response was recorded as PS area (msec×mV) and compared to the final response elicited by the same stimulus strength recorded from the same position after the experimental treatment was finished. The slices were washed for 1 hr with normal ACSF to eliminate lingering drugs and any short-lived effects. […] The percentage of the initial response remaining at the end of the experiment was used as a measure of electrophysiological recovery.
# The areas of PSs (mV/msec) were acquired and analyzed with the Labman program. The data were statistically analyzed with SigmaStat v2.03 (SPSS, Chicago, Ill.). One-way analysis of variance (ANOVA) was used whenever the data were distributed normally. […] In these cases, the less powerful nonparametric Kruskal-Wallis one-way ANOVA on ranks was used. The post-hoc test used was the Student-Newman-Keuls test for normally distributed data and Dunn's test for data that was not normally distributed.
# [4] = test system: CA1 neurons of hippocampal slices; settings: cited from earlier work; for effect of DHβE on the neuroprotection (reported): 1 μM DHβE, 10 nM MLA
# [5] = target: α7 nAChRs (Rattus norvegicus, UniProt Q05941); settings: against the α7 nAChRs; cited from earlier work
# [6] = target: NMDA receptors; settings: against the NMDA receptors; cited from earlier work
# [7] = test system: Akt Ser473; assay: Western blot of phosphorylated Akt in CA1 of hippocampal slices; assay type: cell-based, rat; settings: 1 μM DHβE alone, 20 min
# Description: For immunoassays of phosphorylated proteins, in the initial experiments slices were incubated in the same conditions as for PS determination. Later, the slices were incubated by being submerged in a static chamber on culture insets (Millicell; Millipore, Billerica, Mass.) to avoid drying during timed removal of slices.
# Slices were prepared and maintained as described above. Treatments started after 2 hr of incubation in ACSF. […] At the corresponding time, each slice was removed and the CA1 region microdissected, frozen on dry ice, and stored at −80° C. until assayed. […] Final detection was carried out with enhance chemiluminescence methodology (Pierce Supersignal West Dura) and the intensity of the signal measured in a gel documentation system (Versa Doc Model 1000; Bio-Rad). […] Normalization of the signal of the phosphokinase to the total amount of proteins, measured by densitometry of the stained membrane, was used as the relevant parameter, which was the level of activity of the kinase. This method was validated with several isolated cells and tissues and determined a linear relationship between the amount of total protein (as measured by densitometry) and total kinases (as measured by chemiluminescence) within the range of proteins employed in these experiments (4-12 μg total protein). […]
# [8] = target: α3β4 (Homo sapiens, UniProt P30926+P32297); settings: cited from earlier work
# [9] = target: α7 (Homo sapiens, UniProt P36544); settings: cited from earlier work
# Chain of α7 (P36544 23-502): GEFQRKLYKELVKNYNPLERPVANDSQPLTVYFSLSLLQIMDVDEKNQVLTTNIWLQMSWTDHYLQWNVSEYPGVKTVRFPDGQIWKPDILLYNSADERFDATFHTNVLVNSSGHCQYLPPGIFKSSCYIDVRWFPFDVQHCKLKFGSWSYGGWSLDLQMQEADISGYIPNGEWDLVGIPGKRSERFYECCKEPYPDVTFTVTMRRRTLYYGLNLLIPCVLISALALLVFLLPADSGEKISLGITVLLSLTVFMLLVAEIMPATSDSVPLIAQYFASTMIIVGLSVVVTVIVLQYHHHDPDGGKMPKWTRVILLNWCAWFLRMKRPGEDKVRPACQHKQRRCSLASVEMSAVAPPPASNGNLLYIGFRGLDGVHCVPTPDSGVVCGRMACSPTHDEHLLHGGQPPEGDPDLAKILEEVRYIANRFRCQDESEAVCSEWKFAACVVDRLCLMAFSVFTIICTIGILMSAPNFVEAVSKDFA
# Chain of α3β4 (P32297 32-505): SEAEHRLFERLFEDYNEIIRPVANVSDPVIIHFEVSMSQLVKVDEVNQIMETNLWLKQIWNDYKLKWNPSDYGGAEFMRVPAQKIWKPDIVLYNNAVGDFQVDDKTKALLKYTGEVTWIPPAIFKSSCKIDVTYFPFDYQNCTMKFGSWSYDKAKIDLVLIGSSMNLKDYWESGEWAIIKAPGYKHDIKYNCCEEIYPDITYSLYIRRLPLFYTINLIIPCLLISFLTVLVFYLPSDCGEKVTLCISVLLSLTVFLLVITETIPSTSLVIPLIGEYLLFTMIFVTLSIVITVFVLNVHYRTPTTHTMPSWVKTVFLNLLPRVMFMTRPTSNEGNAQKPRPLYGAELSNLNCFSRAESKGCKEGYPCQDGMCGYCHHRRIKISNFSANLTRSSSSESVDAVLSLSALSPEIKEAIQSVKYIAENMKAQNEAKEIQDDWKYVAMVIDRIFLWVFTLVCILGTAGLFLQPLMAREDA
# Chain of α3β4 (P30926 22-498): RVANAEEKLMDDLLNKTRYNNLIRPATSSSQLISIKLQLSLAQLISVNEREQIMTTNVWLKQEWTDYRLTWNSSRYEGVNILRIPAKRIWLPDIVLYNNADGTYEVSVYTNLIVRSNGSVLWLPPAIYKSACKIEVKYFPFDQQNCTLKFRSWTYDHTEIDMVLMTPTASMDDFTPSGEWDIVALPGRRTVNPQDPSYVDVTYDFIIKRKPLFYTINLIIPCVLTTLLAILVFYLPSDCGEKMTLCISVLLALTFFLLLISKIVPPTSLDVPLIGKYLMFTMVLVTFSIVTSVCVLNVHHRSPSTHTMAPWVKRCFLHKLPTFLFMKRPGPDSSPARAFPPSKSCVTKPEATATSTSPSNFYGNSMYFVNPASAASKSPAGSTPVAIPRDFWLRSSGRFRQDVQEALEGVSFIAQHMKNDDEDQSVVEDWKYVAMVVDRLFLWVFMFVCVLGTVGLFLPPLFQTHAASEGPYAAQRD
# Chain of α3β4 nAChRs (P32297 32-505): as the sequence (P32297 32-505) above
# Chain of α3β4 nAChRs (P30926 22-498): as the sequence (P30926 22-498) above
# Chain of α4β2 nAChRs (P43681 29-627 limits assumed): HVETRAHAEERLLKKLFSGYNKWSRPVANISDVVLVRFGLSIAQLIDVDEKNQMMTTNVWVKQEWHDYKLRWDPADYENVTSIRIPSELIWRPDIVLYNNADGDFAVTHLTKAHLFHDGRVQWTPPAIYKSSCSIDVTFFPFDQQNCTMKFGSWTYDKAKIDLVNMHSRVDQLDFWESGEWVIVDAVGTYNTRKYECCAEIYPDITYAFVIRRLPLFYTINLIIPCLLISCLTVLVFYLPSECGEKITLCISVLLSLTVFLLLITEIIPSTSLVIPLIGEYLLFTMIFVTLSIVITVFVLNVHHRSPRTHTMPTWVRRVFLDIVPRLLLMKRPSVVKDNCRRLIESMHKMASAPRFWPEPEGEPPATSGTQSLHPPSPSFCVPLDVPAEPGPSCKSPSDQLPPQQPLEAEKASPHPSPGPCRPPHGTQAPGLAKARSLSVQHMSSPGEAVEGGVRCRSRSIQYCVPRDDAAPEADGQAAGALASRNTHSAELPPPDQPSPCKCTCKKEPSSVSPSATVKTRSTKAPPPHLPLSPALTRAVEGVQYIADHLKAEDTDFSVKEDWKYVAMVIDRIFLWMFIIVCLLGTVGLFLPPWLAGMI
# Chain of α4β2 nAChRs (P17787 26-502): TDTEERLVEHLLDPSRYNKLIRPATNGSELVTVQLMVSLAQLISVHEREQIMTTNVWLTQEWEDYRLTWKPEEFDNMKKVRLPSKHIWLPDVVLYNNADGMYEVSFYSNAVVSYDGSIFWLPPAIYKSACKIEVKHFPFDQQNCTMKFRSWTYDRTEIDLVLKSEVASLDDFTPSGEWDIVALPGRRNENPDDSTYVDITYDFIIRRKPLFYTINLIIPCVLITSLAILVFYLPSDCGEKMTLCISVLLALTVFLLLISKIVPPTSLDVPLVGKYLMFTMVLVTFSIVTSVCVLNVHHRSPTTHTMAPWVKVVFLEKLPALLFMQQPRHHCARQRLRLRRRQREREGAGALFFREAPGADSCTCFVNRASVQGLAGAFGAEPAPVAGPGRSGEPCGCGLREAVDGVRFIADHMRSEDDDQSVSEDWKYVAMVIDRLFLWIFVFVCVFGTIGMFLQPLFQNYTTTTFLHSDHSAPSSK
# Chain of α7 nAChRs (Q05941 23-502): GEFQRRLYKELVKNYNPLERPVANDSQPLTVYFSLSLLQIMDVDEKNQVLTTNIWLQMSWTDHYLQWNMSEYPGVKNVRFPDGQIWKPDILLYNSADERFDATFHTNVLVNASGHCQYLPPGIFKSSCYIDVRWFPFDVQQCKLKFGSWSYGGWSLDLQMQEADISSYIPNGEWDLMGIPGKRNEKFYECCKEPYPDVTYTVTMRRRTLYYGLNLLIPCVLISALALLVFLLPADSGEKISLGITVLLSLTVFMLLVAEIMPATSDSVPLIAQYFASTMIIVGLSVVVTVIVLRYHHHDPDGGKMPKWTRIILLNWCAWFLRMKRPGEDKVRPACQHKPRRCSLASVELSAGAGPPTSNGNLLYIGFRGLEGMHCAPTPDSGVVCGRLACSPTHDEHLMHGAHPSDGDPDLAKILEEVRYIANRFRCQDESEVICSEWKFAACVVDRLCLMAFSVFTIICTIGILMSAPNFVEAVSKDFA
structure (smiles),measurement,setting,value
"CC1=CC(O)CC(C)(O)C=CC(C(C)C)CCC(C)=CCC1 [4R, (1S,2E,4R,6R,7E,11E)-cembra-2,7,11-triene-4,6-diol]",IC50,[1],2.2 µM
same,IC50,[2],19.1 µM
Cn1cc(C2=C(c3ccc(Cl)cc3Cl)C(=O)NC2=O)c2ccccc21 [SB 216763],neuroprotection,"[3]; 100 μM applied 1 hr before or after 0.5 mM NMDA, n=21",neuroprotective only when applied after NMDA
"CN1CCCC1c1cccnc1 (stereo not drawn) [Nicotine, nicotine]",effect of Ro-31-8220 on the neuroprotection,"[3]; 100 nM Ro-31-8220, 2 μM 4R, 1 μM nicotine",did inhibit
same,effect of APV on the neuroprotection,"[3]; 0.4 μM APV, 2:M 4R or 1:M nicotine",only a nonsignificant decrement
same,effect of KT5720 on the neuroprotection,"[3]; 0.5 μM KT5720, 2 μM 4R, 1 μM nicotine",partially decreased
same,recovery,[3]; 1 μM during 1 hr followed by 0.5 mM NMDA,more than 80%
same,effect of KN-62 on the neuroprotection,[3]; 9 μM KN-62,did not prevent a significant neuroprotection
same,effect of nifedipine on the neuroprotection,[3],did not inhibit
same,effect of DNQX on the neuroprotection,"[3]; 50 μM DNQX, 2 μM 4R, 1 μM nicotine",recovered significantly more activity
same,effect of PD98059 on the neuroprotection,"[3]; 2 μM 4R, 1 μM nicotine",annulled
same,Effect on the neuroprotection caused by the substance: 9 μMKN-62,[3]; main target CaM kinases,0
same,Effect on the neuroprotection caused by the substance: 10 μM Nifedipine,[3]; main target L-type VGCC,0
same,Effect on the neuroprotection caused by the substance: 4 μMAPV,[3]; main target NMDA receptors,0
same,Effect on the neuroprotection caused by the substance: 50 μM Vesarnicol,[3]; main target Synaptic ACh release,0
same,effect of DHβE on the neuroprotection (reported),[4],blocked
"CC12CC3CC(C)(C1)CC(N)(C3)C2 [Memantine, memantine]",effect of DHβE on the neuroprotection,"[3]; 1 μM DHβE, 2 μM 4R",inhibited
same,effect of nifedipine on the neuroprotection,[3],blocked
same,effect of PD98059 on the neuroprotection,"[3]; 2 μM 4R, 1 μM nicotine",not inhibited
same,shape of the dose-response curve for neuroprotection,[3]; FIGS. 20A-B,bell-shaped
same,concentrations of dose-dependent neuroprotection,[3]; effect decreases at higher concentrations,below 3 μM
same,effect of inhibitors of PI3-kinase on the neuroprotection,[3]; inhibitors of PI3-kinase,blocked
same,Effect on the neuroprotection caused by the substance: 10 μM PD98059,[3],0
same,Effect on the neuroprotection caused by the substance: 0.1 μM Ro31 -8220,[3]; main target PKC,0
same,effect of vesamicol on the neuroprotection,[3]; vesamicol,blocked
same,IC50,[5],0.34 µM
same,IC50,[6],5.1 µM
"CO[C@H]1CC=C2CCN3CCC4=C(CC(=O)OC4)[C@]23C1 [DHβE, Dihydro-Beta-erithroidine]",Akt phosphorylation,[7],did not affect
same,Ki,[8],218 µM
same,Ki,[9],25 to 57 µM
"CCN1C[C@]2(COC(=O)c3ccccc3N3C(=O)C[C@H](C)C3=O)CC[C@H](OC)[C@@]34[C@@H]5C[C@H]6[C@H](OC)[C@@H]5[C@](O)(C[C@@H]6OC)[C@@](O)([C@@H](OC)[C@H]23)[C@@H]14 [MLA, methyllycaconitine]",Effect on the neuroprotection caused by the substance: 10 μM PD98059,[3],0
same,effect of DHβE on the neuroprotection (reported),[4],blocked
same,neuroprotection (reported),[4]; literature report,neuroprotective
